Common to all, as to type: in vivo
In experiment [1] the test system is Ctenocephalides felis. Put plainly: Ctenocephalides felis in vitro contact test with adult cat fleas. Conditions: application rate 5 μg/cm^2 (=500 g/ha), after 48 h. Here is the method: Ctenocephalides felis—In Vitro Contact Tests with Adult Cat Fleas
For the coating of the test tubes, 9 mg of active compound are first dissolved in 1 ml of acetone p.a. and then diluted to the desired concentration with acetone p.a. 250 μl of the solution are distributed homogeneously on the inner walls and the base of a 25 ml glass tube by turning and rocking on an orbital shaker (rocking rotation at 30 rpm for 2 h). With 900 ppm of active compound solution and internal surface area 44.7 cm^2, given homogeneous distribution, an area-based dose of 5 μg/cm^2 is achieved.
After the solvent has evaporated off, the tubes are populated with 5-10 adult cat fleas (Ctenocephalides felis), sealed with a perforated plastic lid and incubated in a horizontal position at room temperature and ambient humidity. After 48 h, efficacy is determined. To this end, the tubes are stood upright and the fleas are knocked to the base of the tube. Fleas which remain motionless at the base or move in an uncoordinated manner are considered to be dead or moribund.
100% efficacy means that all the fleas were dead or moribund. 0% efficacy means that no fleas were harmed.

In experiment [2] the test system is Diabrotica balteata. The experiment is described as follows: Diabrotica balteata spray test. Conditions: application rate 160 μg/well; beetle larvae on germinated wheat grains; after 7 days.
The subject of experiment [3] is Myzus persicae. The experiment is described as follows: Myzus persicae spray test. The following applies: application rate 500 g/ha; Chinese cabbage leaf discs; after 5 days.
Experiment [4] has as its system Nezara viridula. The experiment is described as follows: Nezara viridula spray test. The following applies: application rate 500 g/ha; larvae on barley plants; after 4 days. Here is the method:
Nezara viridula—Spray Test
(§1) Solvent: 78.0 parts by weight of acetone • • 1.5 parts by weight of dimethylformamide
(§2) Emulsifier: alkylaryl polyglycol ether
(§3) To produce a suitable active compound formulation, 1 part by weight of active compound is dissolved with the specified parts by weight of solvent and made up to the desired concentration with water containing an emulsifier concentration of 1000 ppm. To produce further test concentrations, the formulation is diluted with emulsifier-containing water.
Barley plants (Hordeum vulgare) infected with larvae of the Southern green shield bug (Nezara viridula) are srayed with an active compound formulation of the desired concentration.
After 4 days, the efficacy in % is determined. 100% means that all of the shield bugs have been killed; 0% means that none of the shield bugs have been killed.

The subject of experiment [5] is Nilaparvata lugens. Put plainly: Nilaparvata lugens test. The following applies: application rate 500 g/ha; rice plants; after 4 days. The procedure:
as §1, §2, §3
Rice plants (Oryza sativa) are sprayed with the active compound formulation of the desired concentration and then infected with the brown planthopper (Nilaparvata lugens).
After 4 days, the efficacy in % is determined. 100% means that all of the planthoppers have been killed; 0% means that none of the planthoppers have been killed.

In experiment [6] the test system is Myzus persicae. Put plainly: Myzus persicae oral test. The following applies: after 5 days. The procedure, abridged: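 Aphids fed through parafilm on compound formulation (acetone, diluted with water) mixed 50:150 μL with IPL41 insect medium (33%+15% sugar), using a mixed population. Efficacy was recorded after 5 days as % mortality (100% = all aphids killed).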

For the compound `CC(=O)c1c([O-])[n+]2ccccc2n1Cc1cnc(Cl)s1` [Example I-008], the efficacy came out at 100% in experiment [1]; 100% in experiment [2]; 100% in experiment [3]; 90% in experiment [4]; 100% in experiment [5]; 100% in experiment [6] (application rate 4 ppm). Further, the efficacy in experiment [6] (application rate 20 ppm) is 100%.

The values above are taken from patent publication US20200037600A1, “MESOIONIC IMIDAZOPYRIDINES AS INSECTICIDES” (Bayer Aktiengesellschaft, priority 2017, published 2020).
